The values below come from PMC10859961, “Ir(III) Half-Sandwich Photosensitizers with a π-Expansive Ligand for Efficient Anticancer Photodynamic Therapy” (Journal of Medicinal Chemistry, 2024).

One may read the IC50 as the concentration at which inhibition is half-maximal.

Where two headings read alike, the source gives them in different places. Bounds are passed on as bounds.

Data set [1] can be described thus: 1O2 quantum yield determination with DPBF. To be noted: acetonitrile. As for the experimental part: It was performed for complexes 1–8 in acetonitrile according to a relative procedure adapted from the literature[132]−[134] based on monitoring the oxidation of 1,3-diphenylisobenzofuran (DPBF, yellow) to 1,2-dibenzoylbenzene (colorless) photosensitized by the Ir(III) complexes. DPBF was used as an ^1O2 scavenger due to its fast reaction with this molecule. Fresh stock air-equilibrated solutions of photosensitizers (6.00 × 10^–6 M) and DPBF (1.50 × 10^–4 M) in acetonitrile were prepared. In a quartz cell, 1 mL of DPBF solution, 0.5 mL of complex solution, and 1.5 mL of acetonitrile were mixed to prepare a final solution with 5.00 × 10^–5 M DPBF and 1.00 × 10^–6 M complex. The final solutions were studied by recording UV–vis absorption spectra at room temperature in dark conditions (over a period of 6 min with time intervals of 2 min), under blue light irradiation (λexc = 470 nm, “Medusa” photoreactor) and under green light irradiation (λexc = 530 nm, “Medusa” photoreactor) for 5 s irradiation intervals during a total exposure period of 20 s. Absorption UV–vis spectra were recorded after every irradiation interval.
The consumption of DPBF probe was measured by monitoring its absorbance intensity decrease at 410 nm with irradiation time. ^1O2 generation quantum yield (ϕΔ) was calculated from eq 1 using Rose Bengal or [Ru(bpy)3]^2+ as reference for complexes with pbpz and pbpn ligands, respectively: [drawing 22] 1 where s and ref subscripts correspond to the complex and the reference, ϕΔ is the ^1O2 generation quantum yield (0.53 for Rose Bengal[135] and 0.56 for [Ru(bpy)3]Cl2[132] in degassed acetonitrile), S is the slope of the plots of the −ln(normalized absorbance) of DPBF at 410 nm vs the irradiation time, and F is the correction factor of absorption, which is given by F = 1–10^–O.D. (where O.D. is the optical density at 470 nm of solutions of complexes and references). The reproducibility of the results was confirmed by performing each experiment three times.
The stability of DPBF probe was studied in dark conditions and under light irradiation. In dark conditions and under green light irradiation the probe remains unaltered. However, under blue light irradiation, a photobleaching of DPBF was observed. Probe consumption was approximately 6.5% every 5 s. Therefore, a working interval of 20 s was chosen, where 75% of the probe remains stable. To calculate the ϕΔ, a correction factor was applied to the absorbance at 410 nm: a 6.5% of the previous value was added to each absorbance to counteract self-consumption of the probe (i.e., to the absorbance at 10 s, a 6.5% of the absorbance at 5 s was added).

For data set [2] the following is noted: H2O/DMSO (95:5); cited from earlier work.
The conditions of data set [3]: degassed acetonitrile; cited from earlier work.
A further data set relates to SK‐MEL28. Conditions: visible light, dose 100 J cm‐2, ref m (Inorg. Chem. 2016, 55, 83); cited from earlier work.
The next data set concerns A549. To be noted: 425 nm, dose 1.2 J cm‐2, ref e (ACS Appl. Mater. Interfaces, 2017, 9, 42471; main text ref 24); cited from earlier work.
The test system of another data set is HeLa. Conditions: 425 nm, dose 1.2 J cm‐2, ref e (ACS Appl. Mater. Interfaces, 2017, 9, 42471; main text ref 24); cited from earlier work.
The next data set concerns HT29. Also noted: method as in p (Pozza et al., Inorg. Chem. 2023). To be noted: 540 nm, dose 9 J cm‐2, ref p (Pozza et al., Inorg. Chem. 2023); cited from earlier work.
The next data set has as its system CT26. Further details: method as in p (Pozza et al., Inorg. Chem. 2023). To be noted: 540 nm, dose 9 J cm‐2, ref p (Pozza et al., Inorg. Chem. 2023); cited from earlier work.
For another data set, the system named is RPE‐1. Also noted: method as in p (Pozza et al., Inorg. Chem. 2023). Conditions: cited from earlier work.
Data set [4] is described as follows: pKa determination (absorbance vs pH). Type of data set: physicochemical. Conditions: H2O/DMSO (98/2, v/v) solution; DMSO/H2O (2/98, v/v), Bu4NBF4 5 mM; piperidine ring; read-out: pKa. As for the experimental part: Solutions of complexes 5 and 6 (2.00 × 10^–5 M) and Imepip ligand (2.00 × 10^–3 M) in H2O/DMSO (98/2, v/v) mixture with n-Bu4NBF4 (5 mM) were prepared. The presence of the salt ensured the conductivity of the media. Evolution of the peaks was studied at different pH by recording the absorbance spectrum. Aliquots of 10 μL of HCl (0.002–0.020 M) or NaOH (0.002–0.020 M) were added to a solution of 2.4 mL of complex to vary the pH. The absorbance versus pH plot enables us to determine one constant according to the equation from the Wilson and Lester method (eq 2):[146] [drawing 23] 2 where Aa is the absorbance for the acid species, Ab is the absorbance for the basic species, and Am is the absorbance of the mixture. The intersection obtained by representing log(Am – Aa)/(Ab – Am) versus pH provides the pKa.

The test system of a further data set is A549 cancer cells. The experiment in a line: MTT cell viability assay, dark or photoactivated. Conditions: 4 h incubation, kept in the dark, viability after 48 h, MTT, read-out: IC50 dark. Type of data set: cell-based, human. As for the experimental part: Cells were cultured in 96-well plates at a density of 3000 (A549), 2500 (HeLa), or 5000 (PC-3, 1BR.3.G, and MRC-5) cells per well in cell culture medium and allowed to attach for 24 h. Solutions of the complexes at different concentrations were prepared for cell treatments. In all cases, the solid compounds were weighed using an analytical balance (Mettler Toledo AX205DR) to ensure precise measurements. Subsequently, 5 mM solutions were prepared using DMSO. Solutions were then diluted in water to reach a concentration of 1 mM and then, aliquots were taken and diluted in culture medium to obtain solutions ranging from 0 to 50 μM. […] The cells were treated with these solutions in dark conditions or following the photoactivation protocol (see below). 48 h later the treatments were removed, and cells were washed with phosphate-buffered saline (PBS).
Initially, the effect of the complexes on the cell viability was determined by the 3-(4,5-dimethylthiazol-2-yl)-2,5-diphenyltetrazolium bromide (MTT) assay.[147] The cells were incubated for 2 h with 100 μL of culture medium together with 10 μL of MTT (Sigma-Aldrich) at 0.5 mg/mL. After discarding the medium, DMSO was added to each well to dissolve the purple formazan crystals. The absorbance of each well was determined on a Multiscan Plate Reader (Synergy 4, Biotek, Winooski) at a wavelength of 570 nm. Cell viability was also assessed using the CyQUANT Direct Cell Proliferation Assay (Thermo Fisher Scientific), following the manufacturer’s instructions. Briefly, after the treatments, the cells were washed with PBS, and an equal volume of culture medium and CyQUANT mix was added to each well. The plates were then incubated for 1 h at 37 °C. Subsequently, the fluorescence intensity was bottom read using a Multiscan Plate Reader (Synergy 4, Biotek, Winooski) with excitation and emission filters of 485 and 528 nm, respectively. In both assays, at least three replicates were measured for each treatment. The concentration that reduces the cell viability by 50% (IC50) was established using the Gen5 software (BioTek). Three independent experiments were carried out for each compound. […] The phototoxicity index (PI = IC50,dark/IC50,light) was determined.
To assess the photodynamic activity of the complexes, cells were incubated with the complexes for 4 h to enable their intracellular accumulation. The cells were then irradiated with light with a wavelength of 460 nm (blue), 530 nm (green), or 655 nm (red) for 1 h using a LED system (LuxLight) with an effective power of 6.7 mW cm^–2, which provides a total light dose of 24.1 J cm^–2. The LED system was positioned at 25 mm from the cell culture plates.
(In general: Tetrazolium assays rely on reduction of a dye to a coloured formazan, in cell work by metabolically active cells.)

[5] abbreviates: 540 nm, dose 9 J cm‐2, ref p (Pozza et al., Inorg. Chem. 2023).
[6] abbreviates: 620 nm, dose 6.7 J cm‐2, ref p (Pozza et al., Inorg. Chem. 2023).

`[Cl][Ru][Cl].c1ccc(-c2ccccn2)nc1.c1ccc(-c2ccccn2)nc1.c1ccc(-c2ccccn2)nc1` [[Ru(bpy)3]Cl2, reference compound]: the “Slope (S) of ‐ln(normalized Abs) vs time, photooxidation of DPBF” value in [1] (λir = 470 nm) is on record as 0.0535; in data set [1] (λir = 530 nm), 0.0057. Further, the results for the “1O2 generation quantum yield (ϕΔ) of reference” value in data set [2] and in data set [3] were 0.18 and 0.56, respectively.
Take `[Ru+2].[c-]1cccc2c1c1ncccc1c1nc3cc4ccccc4cc3nc21.c1ccc(-c2ccccn2)nc1.c1ccc(-c2ccccn2)nc1` [[Ru(bpy)2(pbpn)]+]: in the data set with SK‐MEL28, the PI is listed as more than 1400 and the PI/Dose is reported as more than 140.
For the molecule `F[P-](F)(F)(F)(F)F.[Ir+3].[c-]1ccccc1-c1ccccn1.[c-]1ccccc1-c1ccccn1.c1ccc2cc3[nH]c(-c4ccc5ccccc5n4)nc3cc2c1` [[Ir(N^∧N)(ppy)2]PF6], the PI/Dose is recorded as 268 in the data set with A549 and 397 in the data set with HeLa.
Consider `O=C([O-])c1c(Cl)c(Cl)c(Cl)c(Cl)c1-c1c2cc(I)c(=O)c(I)c-2oc2c(I)c([O-])c(I)cc12.[Na+].[Na+]` [Rose Bengal], for which the “1O2 generation quantum yield (ϕΔ) of reference” value is 0.76 in data set [2] and 0.53 in [3].
For `[Ru+2].c1ccc2cc3nc4c5cccnc5c5ncccc5c4nc3cc2c1.c1ccc2cc3nc4c5cccnc5c5ncccc5c4nc3cc2c1.c1cnc2c(c1)ccc1cccnc12` [[Ru(dppn)2(phen)]2+], the PI is 556 with HT29, 1666 in the data set on CT26, 556 in the data set with RPE‐1 (setting [5]) and 333 in the data set on RPE‐1 (setting [6]). Further, the PI/Dose in the data set with HT29 was 61.8; in the data set on CT26, 185.1; with RPE‐1 (setting [5]), 61.8; with RPE‐1 (setting [6]) it was 49.7.
As to `c1cn(CCN2CCCCC2)cn1` [(N-ethylpiperidyl)imidazole, reference compound], the pKa in data set [4] came to 7.1. Moreover, the 50% inhibitory concentration (IC50) in the data set with A549 cancer cells (A549) is 68 ± 2 µM; with A549 cancer cells (Homo sapiens, A549, A549) it was more than 50 µM.
